Eight molecules from patent US20210070748A1, “INHIBITORS OF BRUTONS TYROSINE KINASE” (Pharmacyclics LLC, priority 2015, published 2021) can be followed below.

Some results are limits rather than exact numbers.

Common to all, as to format: biochemical
One assay addresses T1, JAK3 (Homo sapiens, UniProt P52333).
T1 sequence (P52333 1-1124): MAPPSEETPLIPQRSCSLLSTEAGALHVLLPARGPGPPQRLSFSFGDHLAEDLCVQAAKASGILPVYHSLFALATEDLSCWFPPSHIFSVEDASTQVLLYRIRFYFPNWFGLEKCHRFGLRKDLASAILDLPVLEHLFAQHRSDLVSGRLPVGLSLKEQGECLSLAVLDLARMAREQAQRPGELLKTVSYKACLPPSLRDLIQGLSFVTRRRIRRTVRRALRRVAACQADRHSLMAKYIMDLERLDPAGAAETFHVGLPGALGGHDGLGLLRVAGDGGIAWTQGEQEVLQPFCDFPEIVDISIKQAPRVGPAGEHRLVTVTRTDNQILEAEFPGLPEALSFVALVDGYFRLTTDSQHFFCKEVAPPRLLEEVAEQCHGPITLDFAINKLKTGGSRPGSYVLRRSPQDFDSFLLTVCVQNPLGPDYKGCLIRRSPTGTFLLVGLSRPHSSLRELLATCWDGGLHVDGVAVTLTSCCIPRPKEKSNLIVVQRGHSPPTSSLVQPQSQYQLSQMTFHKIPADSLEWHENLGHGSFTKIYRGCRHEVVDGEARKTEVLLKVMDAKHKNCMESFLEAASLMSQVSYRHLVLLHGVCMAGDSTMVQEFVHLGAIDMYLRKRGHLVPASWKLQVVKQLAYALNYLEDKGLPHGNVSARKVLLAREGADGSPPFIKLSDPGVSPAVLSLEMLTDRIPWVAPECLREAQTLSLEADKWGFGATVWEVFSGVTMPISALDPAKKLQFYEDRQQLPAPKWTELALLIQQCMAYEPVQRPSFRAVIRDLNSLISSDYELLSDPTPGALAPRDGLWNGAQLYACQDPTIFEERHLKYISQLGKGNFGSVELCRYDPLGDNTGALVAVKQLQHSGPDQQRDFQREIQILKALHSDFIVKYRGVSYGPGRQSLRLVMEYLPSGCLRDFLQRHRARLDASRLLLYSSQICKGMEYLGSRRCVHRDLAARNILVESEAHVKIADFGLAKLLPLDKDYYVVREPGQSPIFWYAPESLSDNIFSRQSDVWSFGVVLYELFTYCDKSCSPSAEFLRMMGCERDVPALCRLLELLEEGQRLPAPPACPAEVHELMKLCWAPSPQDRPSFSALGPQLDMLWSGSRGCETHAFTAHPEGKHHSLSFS
The experiment in a line: Inhibition of a panel of kinases, in vitro HotSpot kinase assay: JAK3. Conditions: D-compounds panel data; 1 μM ATP; read-out: IC50 JAK3.

Another assay deals with LCK (Homo sapiens, UniProt P06239). The experiment in a line: Inhibition of a panel of kinases, in vitro HotSpot kinase assay: LCK. Conditions: D-compounds panel data; 1 μM ATP; read-out: IC50 LCK.
A further assay addresses T2, ITK (Homo sapiens, UniProt Q08881).
T2 sequence (Q08881 1-620): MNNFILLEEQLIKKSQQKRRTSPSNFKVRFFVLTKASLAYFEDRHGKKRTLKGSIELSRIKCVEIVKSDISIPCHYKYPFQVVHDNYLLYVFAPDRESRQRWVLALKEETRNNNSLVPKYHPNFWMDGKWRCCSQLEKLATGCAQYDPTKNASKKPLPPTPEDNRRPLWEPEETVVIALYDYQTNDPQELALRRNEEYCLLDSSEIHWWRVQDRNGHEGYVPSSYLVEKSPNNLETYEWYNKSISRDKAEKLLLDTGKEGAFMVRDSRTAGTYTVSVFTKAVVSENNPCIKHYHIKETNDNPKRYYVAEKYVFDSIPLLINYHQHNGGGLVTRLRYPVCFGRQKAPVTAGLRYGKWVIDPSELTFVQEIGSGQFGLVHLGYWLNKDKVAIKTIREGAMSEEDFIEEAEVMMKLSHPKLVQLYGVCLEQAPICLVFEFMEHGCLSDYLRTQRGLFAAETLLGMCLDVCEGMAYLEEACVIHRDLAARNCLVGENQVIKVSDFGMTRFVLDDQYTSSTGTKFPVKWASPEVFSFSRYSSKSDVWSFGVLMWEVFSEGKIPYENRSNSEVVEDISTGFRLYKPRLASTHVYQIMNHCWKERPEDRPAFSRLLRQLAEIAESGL
The experiment in a line: Inhibition of a panel of kinases, in vitro HotSpot kinase assay: ITK. As to conditions: D-compounds panel data; 1 μM ATP. Here is the method: (§1) The degree of inhibition of a panel of kinases is determined using the in vitro HotSpot kinase assay (purified enzymes, ^33P-ATP, an appropriate substrate and 1 μM ATP).

The next assay has as its target EGFR (Homo sapiens, UniProt P00533). The experiment in a line: Inhibition of a panel of kinases, in vitro HotSpot kinase assay: EGFR. As to conditions: D-compounds panel data; 1 μM ATP. Here is the method:
as §1

The target in another assay is SRC (Homo sapiens, UniProt P12931). As to the kind of experiment: Inhibition of a panel of kinases, in vitro HotSpot kinase assay: SRC. Conditions: D-compounds panel data; 1 μM ATP. How it is done:
as §1

A further assay concerns the target T3, TEC (Homo sapiens, UniProt P42680).
T3 sequence (P42680 1-631): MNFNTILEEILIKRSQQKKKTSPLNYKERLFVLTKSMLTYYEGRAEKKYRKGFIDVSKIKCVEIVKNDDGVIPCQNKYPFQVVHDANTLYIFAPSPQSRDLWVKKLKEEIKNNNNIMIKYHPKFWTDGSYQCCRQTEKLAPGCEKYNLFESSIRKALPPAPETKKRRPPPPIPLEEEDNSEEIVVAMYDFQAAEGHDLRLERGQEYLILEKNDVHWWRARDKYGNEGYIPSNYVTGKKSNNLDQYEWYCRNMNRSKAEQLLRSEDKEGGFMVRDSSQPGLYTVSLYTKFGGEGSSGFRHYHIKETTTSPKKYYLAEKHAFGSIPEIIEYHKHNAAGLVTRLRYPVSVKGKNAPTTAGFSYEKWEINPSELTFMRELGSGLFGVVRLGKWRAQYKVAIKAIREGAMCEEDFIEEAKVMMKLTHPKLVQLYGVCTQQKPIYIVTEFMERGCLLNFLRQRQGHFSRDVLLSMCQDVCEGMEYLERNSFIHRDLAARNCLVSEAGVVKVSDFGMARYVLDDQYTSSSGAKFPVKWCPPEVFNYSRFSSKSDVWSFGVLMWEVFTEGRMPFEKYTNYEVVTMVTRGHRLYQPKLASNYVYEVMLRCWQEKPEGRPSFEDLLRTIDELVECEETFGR
As to the kind of experiment: Inhibition of a panel of kinases, in vitro HotSpot kinase assay: TEC. As to conditions: D-compounds panel data; 1 μM ATP. Here is the method:
as §1

EGFR, sequence (P00533 25-1210): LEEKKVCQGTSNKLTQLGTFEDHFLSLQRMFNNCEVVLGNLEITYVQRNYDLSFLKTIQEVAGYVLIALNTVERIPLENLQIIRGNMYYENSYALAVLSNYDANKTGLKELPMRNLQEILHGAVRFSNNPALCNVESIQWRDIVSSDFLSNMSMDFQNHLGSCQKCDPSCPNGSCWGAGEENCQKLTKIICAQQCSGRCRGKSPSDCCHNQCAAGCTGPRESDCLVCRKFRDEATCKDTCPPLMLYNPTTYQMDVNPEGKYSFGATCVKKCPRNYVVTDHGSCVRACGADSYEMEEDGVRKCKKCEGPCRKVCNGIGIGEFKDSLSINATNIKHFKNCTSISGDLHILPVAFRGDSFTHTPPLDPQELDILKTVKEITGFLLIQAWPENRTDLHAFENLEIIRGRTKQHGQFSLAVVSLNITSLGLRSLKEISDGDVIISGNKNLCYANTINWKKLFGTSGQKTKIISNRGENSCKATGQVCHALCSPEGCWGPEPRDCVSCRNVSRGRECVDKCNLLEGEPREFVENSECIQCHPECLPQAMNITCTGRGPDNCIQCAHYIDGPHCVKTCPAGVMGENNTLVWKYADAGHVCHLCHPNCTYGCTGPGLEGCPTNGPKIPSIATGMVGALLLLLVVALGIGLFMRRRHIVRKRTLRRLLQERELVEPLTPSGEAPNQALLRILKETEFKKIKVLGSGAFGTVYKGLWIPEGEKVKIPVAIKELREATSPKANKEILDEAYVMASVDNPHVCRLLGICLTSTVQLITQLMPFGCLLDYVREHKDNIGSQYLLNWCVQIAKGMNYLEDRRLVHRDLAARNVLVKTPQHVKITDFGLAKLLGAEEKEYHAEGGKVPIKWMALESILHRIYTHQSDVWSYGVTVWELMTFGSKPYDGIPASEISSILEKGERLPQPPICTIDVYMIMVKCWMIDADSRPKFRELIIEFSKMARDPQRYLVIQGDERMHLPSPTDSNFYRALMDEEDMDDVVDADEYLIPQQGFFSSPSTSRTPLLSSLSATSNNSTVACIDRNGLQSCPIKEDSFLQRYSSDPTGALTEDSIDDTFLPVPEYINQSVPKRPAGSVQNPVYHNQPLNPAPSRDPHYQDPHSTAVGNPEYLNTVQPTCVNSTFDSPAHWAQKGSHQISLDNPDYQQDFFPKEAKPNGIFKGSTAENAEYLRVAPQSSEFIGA
SRC, sequence (P12931 whole entry): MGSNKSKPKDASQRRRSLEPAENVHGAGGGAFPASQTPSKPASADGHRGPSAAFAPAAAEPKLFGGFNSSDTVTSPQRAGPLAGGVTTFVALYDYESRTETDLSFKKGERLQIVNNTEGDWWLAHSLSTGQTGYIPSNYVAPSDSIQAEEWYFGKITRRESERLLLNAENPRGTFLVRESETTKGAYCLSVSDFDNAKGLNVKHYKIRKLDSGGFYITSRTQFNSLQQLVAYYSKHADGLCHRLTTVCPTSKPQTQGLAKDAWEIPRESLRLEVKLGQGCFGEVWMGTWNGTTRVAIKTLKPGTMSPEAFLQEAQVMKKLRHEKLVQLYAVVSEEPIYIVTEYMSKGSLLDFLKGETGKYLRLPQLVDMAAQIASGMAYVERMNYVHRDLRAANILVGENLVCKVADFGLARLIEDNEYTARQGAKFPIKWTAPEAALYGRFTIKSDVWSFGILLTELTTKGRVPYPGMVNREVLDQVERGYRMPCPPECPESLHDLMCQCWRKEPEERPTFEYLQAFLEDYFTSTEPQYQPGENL
LCK, sequence (P06239 whole entry): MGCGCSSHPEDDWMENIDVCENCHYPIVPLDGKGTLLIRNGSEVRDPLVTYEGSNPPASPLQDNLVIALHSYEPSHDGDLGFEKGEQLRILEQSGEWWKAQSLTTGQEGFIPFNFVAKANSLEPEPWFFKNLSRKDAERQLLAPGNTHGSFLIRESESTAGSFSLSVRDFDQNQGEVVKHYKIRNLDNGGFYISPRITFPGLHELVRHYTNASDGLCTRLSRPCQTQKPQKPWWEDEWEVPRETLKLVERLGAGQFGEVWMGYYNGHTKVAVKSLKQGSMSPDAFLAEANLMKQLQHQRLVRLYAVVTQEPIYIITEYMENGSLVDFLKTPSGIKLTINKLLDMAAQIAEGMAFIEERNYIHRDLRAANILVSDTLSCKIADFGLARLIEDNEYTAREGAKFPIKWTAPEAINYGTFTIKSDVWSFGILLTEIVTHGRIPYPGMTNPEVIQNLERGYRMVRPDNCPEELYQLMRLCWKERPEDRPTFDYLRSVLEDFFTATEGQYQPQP

The IC50 is the concentration at which inhibition is half-maximal. Turning to `Cc1c(Nc2nc(N3CCC[C@@H](NC(=O)c4ccc(C5CC5)cc4)[C@H]3C)cnc2C(N)=O)cnn1C` [Example D-271, 5-[(2R,3R)-3-(4-cyclopropylbenzamido)-2-methylpiperidin-1-yl]-3-[(1,5-dimethyl-1H-pyrazol-4-yl)amino]pyrazine-2-carboxamide], the IC50 is more than 10 µM at JAK3; 1000 to 10000 nM at LCK; more than 10000 nM on ITK; 1000 to 10000 nM on EGFR; 1000 to 10000 nM on SRC; 1000 to 10000 nM against TEC.

As to `C[C@@H]1[C@H](NC(=O)c2ccc(C3CC3)cc2)CCCN1c1cnc(C(N)=O)c(Nc2cnn(C3CCOCC3)c2)n1` [Example D-274, 5-[(2R,3R)-3-(4-cyclopropylbenzamido)-2-methylpiperidin-1-yl]-3-{[1-(oxan-4-yl)-1H-pyrazol-4-yl]amino}pyrazine-2-carboxamide], the IC50 is 1 to 10 µM at JAK3; 100 to 1000 nM on LCK; 100 to 1000 nM on ITK; 1000 to 10000 nM against EGFR; 10 to 100 nM at SRC; not above 10 nM at TEC.

As for `CC(C)n1nnc2cc(C(=O)N[C@@H]3CCCN(c4cnc(C(N)=O)c(Nc5cnn(C)c5)n4)[C@@H]3C)ccc21` [Example D-255, N-[(2R,3R)-1-{5-carbamoyl-6-[(1-methyl-i H-pyrazol-4-yl)amino]pyrazin-2-yl}-2-methylpiperidin-3-yl]-1-(propan-2-yl)-1H-1,2,3-benzotriazole-5-carboxamide], the IC50 was 0.1 to 1 µM on JAK3; 100 to 1000 nM on LCK; 100 to 1000 nM on ITK; 1000 to 10000 nM at EGFR; 10 to 100 nM against SRC; not above 10 nM against TEC.

Regarding `CC(=O)N1CCC(c2ccc(Nc3nc(N4CCC[C@@H](NC(=O)c5ccc(C6CC6)cc5)[C@H]4C)cnc3C(N)=O)cc2)CC1` [Example D-296, 3-{[4-(1-acetylpiperidin-4-yl)phenyl]amino}-5-[(2R,3R)-3-(4-cyclopropylbenzamido)-2-methylpiperidin-1-yl]pyrazine-2-carboxamide], the IC50 is 1 to 10 µM on JAK3; 100 to 1000 nM at LCK; 100 to 1000 nM on ITK; 100 to 1000 nM against EGFR; 10 to 100 nM against SRC; 10 to 100 nM against TEC.

As to `C[C@@H]1[C@H](NC(=O)c2ccc(C3CC3)cc2)CCCN1c1cnc(C(N)=O)c(Nc2cnn(C3CCC(F)(F)CC3)c2)n1` [Example D-307, 5-[(2R,3R)-3-(4-cyclopropylbenzamido)-2-methylpiperidin-1-yl]-3-{[1-(4,4-difluorocyclohexyl)-1H-pyrazol-4-yl]amino}pyrazine-2-carboxamide], the IC50 at JAK3 was more than 10 µM; on LCK, 100 to 1000 nM; against ITK it was 1000 to 10000 nM; on EGFR, more than 10000 nM; against SRC, 100 to 1000 nM; against TEC, 10 to 100 nM.

`C[C@@H]1[C@H](NC(=O)c2ccc(C(C)(C)C)cc2)CCCN1c1cnc(C(N)=O)c(Nc2cnn(C)c2)n1` [Example D-22, 5-[(2R,3R)-3-(4-tert-butylbenzamido)-2-methylpiperidin-1-yl]-3-[(1-methyl-1H-pyrazol-4-yl)amino]pyrazine-2-carboxamide]: the IC50 was more than 10 µM on JAK3; 1000 to 10000 nM on LCK; 1000 to 10000 nM at ITK; 1000 to 10000 nM on EGFR; 100 to 1000 nM on SRC; 10 to 100 nM against TEC.

Take `C[C@@H]1[C@H](NC(=O)c2ccc(C3CC3)cc2C(F)(F)F)CCCN1c1cnc(C(N)=O)c(Nc2cnn(C)c2)n1` [Example D-25, 5-[(2R,3R)-3-[4-cyclopropyl-2-(trifluoromethyl)benzamido]-2-methylpiperidin-1-yl]-3-[(1-methyl-1H-pyrazol-4-yl)amino]pyrazine-2-carboxamide]: the IC50 was in the range of 1 to 10 µM at JAK3; 100 to 1000 nM at LCK; 1000 to 10000 nM against ITK; 1000 to 10000 nM against EGFR; 100 to 1000 nM against SRC; 10 to 100 nM against TEC.

With `C[C@@H]1[C@H](NC(=O)c2ccc(C3CC3)cc2)CCCN1c1cnc(C(N)=O)c(Nc2cnn(C3CCN(C(=O)C4CC4)CC3)c2)n1` [Example D-288, 3-{[1-(1-cyclopropanecarbonylpiperidin-4-yl)-1H-pyrazol-4-yl]amino}-5-[(2R,3R)-3-(4-cyclopropylbenzamido)-2-methylpiperidin-1-yl]pyrazine-2-carboxamide], the IC50 is 1 to 10 µM on JAK3; 100 to 1000 nM on LCK; 100 to 1000 nM at ITK; 1000 to 10000 nM on EGFR; 10 to 100 nM at SRC; not above 10 nM on TEC.
